Test results from US4642309A, “Indolin-2-one derivatives preparation thereof and intermediates for the preparation thereof” (Boehringer Mannheim GmbH, priority 1983, dated 1987).
Read-outs that look alike come from different tables or passages of the source.

Legend:
[1] = test system: cardiac β-receptors (beta 1); assay: Beta-receptor blocking activity: inhibition of isoprenaline (1 mcg/kg i.v.) induced heart rate increase (beta 1-blockage) in rabbits; assay type: in vivo, rabbit; details: for β1-Blockade ID30 fcor / β1-Blockade ID50 fcor: i.v., rabbits; for β1-Blockade ID30 fcor: 30% inhibition of isoprenaline effect on heart rate; for β1-Blockade ID50 fcor: 50% inhibition of isoprenaline effect on heart rate
Experimental: Rabbits were fixed in wooden cages and the blood pressure derived using a catheter placed in the lateral ear artery (details as under 2.). From the blood pressure pulsations, the heart rate was digitally read using an integrator. The beta-receptor blocking quality was determined by measuring inhibitory action against 1 mcg/kg i.v. isoprenaline.

[2] = test system: CSE reflex (arterial blood pressure); assay: Vasodilating activity: weakening of the carotid occlusion (CSE) reflex blood pressure rise in anesthetized rabbits; assay type: in vivo, rabbit; details: for ED (30 mm Hg): Oryctolagus cuniculus, iv; for BQ (ID50 fcor / ED-30 mm Hg): ratio of beta-blocking ID50 to vasodilating ED-30
Experimental: Rabbits were anesthetized with 26%-urethane 5 ml/kg i.v. For a continual measurement of the arterial blood pressure a catheter was implanted into the Arteria femoralis. The blood pressure was measured by means of an electromechanical pressure transducer (Statham P 23/Db). The impulses were registered on a direct printer and after calibration evaluated with a mercury manometer. After determining the starting value, both carotid arteries (Aa. carotides) were occluded for 2 min and thereby the blood pressure temporarily raised (Carotis-Sinus-Relief Reflex-CSE). Following that, the substances were injected in increasing doses and 8 min. later the CSE reflex induced again. In periods of 15 min each, in logarithmically rising dosage (factor 2), the test substance was injected again and the CSE value induced again. Substances which under these conditions weaken the rise of the blood pressure under CSE can be regarded as vasodilating. To estimate the blood pressure lowering quality, the dose was calculated which weakens the CSE reflex by 30 mm Hg (ED-30 mm Hg).

[3] = Tolerability of i.v. doses; details: in vivo, iv
[4] = dose weakening the CSE reflex by 30 mm Hg, anesthetized rabbits, read-out: Vasodilatation CSE ED-30
[5] = read-out: Vasodilatation CSE ED-30
[6] = statement in text on reference substances, read-out: ED-30 (vasodilating quality)

Row | Structure (SMILES) | β1-Blockade ID30 fcor [1] | β1-Blockade ID50 fcor [1] | ED (30 mm Hg) [2, 4] [mg/kg] | BQ (ID50 fcor / ED-30 mm Hg) [2] | ED (30 mm Hg) [2, 5] [mg/kg] | beta-blocking activity (in words) [1] | vasodilating quality (in words) [2] | ED (30 mm Hg) ([2]; read-out: ED-30 (vasodilating quality)) [mg/kg] | MTD ([3]; not tolerated at all, read-out: dose above which not tolerated at all) [mg/kg] | MTD ([3]; poorly tolerated, read-out: dose above which poorly tolerated) [mg/kg] | ED (30 mm Hg) [2, 6] [mg/kg]
1 | O=C(O)/C=C/C(=O)O.O=C1Nc2cccc(OCC(O)CNCCOc3ccccc3)c2C1Cc1ccn[nH]1 (stereo not drawn) [Example 7f, 4-[2-hydroxy-3-(2-phenoxyethylamino)-propoxy]-3-(pyrazol-5-yl-methyl)-indolin-2-one fumarate] | 334 µg/kg | 1020 µg/kg | 0.43 | 2,37 | – | – | – | – | – | – | –
2 | CC(C)NCC(O)COc1cccc2c1C(=Cc1ccccc1O)C(=O)N2 (stereo not drawn) [Example 1a, 4-(2-hydroxy-3-isopropylaminopropoxy)-3-(2-hydroxybenzylidene)-indolin-2-one] | 98 µg/kg | 317 µg/kg | 2.71 | 0,12 | – | – | – | – | – | – | –
3 | O=C(O)c1ccccc1.O=C1Nc2cccc(OCC(O)CNCCOc3ccc(O)cc3)c2C1=Cc1ccccc1O (stereo not drawn) [Example 1p, 4-{2-hydroxy-3-[2-(4-hydroxyphenoxy)-ethylamino]-propoxy}-3-(2-hydroxybenzylidene)-indolin-2-one benzoate] | 192 µg/kg | 932 µg/kg | – | 1,24 | 0.75 | – | – | – | – | – | –
4 | CSc1ccc(C=C2C(=O)Nc3cccc(OCC(O)CNC(C)C)c32)c(O)c1 (stereo not drawn) [Example 1d, 4-(2-hydroxy-3-isopropylaminopropoxy)-3-(2-hydroxy-4-methylthiobenzylidene)-indolin-2-one] | 21 µg/kg | 46 µg/kg | 1.48 | 0,03 | – | – | – | – | – | – | –
5 | O=C(O)/C=C/C(=O)O.O=C1Nc2cccc(OCC(O)CNCCOc3ccc(O)cc3)c2C1Cc1ccn[nH]1 (stereo not drawn) [Example 7e, 4-{2-hydroxy-3-[2-(4-hydroxyphenoxy)-ethylamino]-propoxy}-3-(pyrazol-5-yl-methyl)-indolin-2-one fumarate] | 65 µg/kg | 254 µg/kg | 0.54 | 0,47 | – | – | – | – | – | – | –
6 | CC(C)NCC(O)COc1cccc2ccccc12 (stereo not drawn) [Propranolol, 1-(isopropylamino)-3-(1-naphthyloxy)-2-propanol, reference compound] | 126 µg/kg | – | – | 0,01 | 30 | potent beta-blockers | do not have or at least do not have any relevantly vasodilating quality | > 9 | > 30 | > 10 | –
7 | O=C1Nc2cccc(OCC(O)CNCCOc3ccc(O)cc3)c2C1Cc1ccccc1O (stereo not drawn) [Example 7d, 4-{2-hydroxy-3-[2-(4-hydroxyphenoxy)-ethylamino]-propoxy}-3-(2-hydroxybenzyl)-indolin-2-one cyclohexylsulphaminate] | 27 µg/kg | 85 µg/kg | 0.97 | 0,09 | – | – | – | – | – | – | –
8 | CC(C)NCC(O)COc1cccc2c1CC(=O)N2 (stereo not drawn) [BM 14.171, 4-(2-hydroxy-3-isopropylaminopropoxy)oxindol, reference compound] | 1,2 mcg/kg | 4,3 mcg/kg | 11.6 | 0,0004 | – | potent beta-blockers | do not have or at least do not have any relevantly vasodilating quality | – | – | – | > 9
9 | O=C1Nc2cccc(OCC(O)CNCCOc3ccc(O)cc3)c2C1=Cc1ccccc1C(=O)O (stereo not drawn) [Example 1r, 4-{2-hydroxy-3-[2-(4-hydroxyphenoxy)-ethylamino]-propoxy}-3-(2-carboxybenzylidene)-indolin-2-one] | 205 µg/kg | 823 µg/kg | 2.03 | 0,41 | – | – | – | – | – | – | –
10 | COc1ccc(CCNCC(O)COc2cccc3c2CC(=O)N3)cc1 (stereo not drawn) [BM 12.946, 4-<2-hydroxy-3-[2-(4-methoxyphenyl)ethylamino]propoxy>oxindol, reference compound] | 46 µg/kg | 188 µg/kg | 9.13 | 0,02 | – | potent beta-blockers | do not have or at least do not have any relevantly vasodilating quality | – | – | – | > 9
11 | O=C1Nc2cccc(OCC(O)CNCCOc3ccccc3)c2C1=Cc1ccn[nH]1 (stereo not drawn) [Example 1u, 4-[2-hydroxy-3-(2-phenoxyethylamino)-propoxy]-3-(pyrazol-5-yl)-methyleneindolin-2-one] | 9,9 mcg/kg | 58 µg/kg | 0.331 | 0,18 | – | – | – | – | – | – | –
